Where two headings read alike, the source gives them in different places.
Key:
Assay in all cases: Kinase selectivity, scanMAX Kinase assay panel (DiscoverX), % control at 1 uM
Format in all cases: binding
[1] = molecular target: T1, scanMAX Kinase assay panel (Homo sapiens, UniProt P29597); conditions: 1 uM, read-out: Percent Control (%)
T1 construct: purchased DiscoverX
Procedure, shortened: (§1)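 Activity was called for kinases showing % control under 35, calculated from compound signal relative to positive and negative controls. Each compound screened at 1 uM against the DiscoverX scanMAX panel.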

[2] = molecular target: T2, scanMAX Kinase assay panel (Homo sapiens, UniProt P30291); conditions: WEE1; 1 uM; read-out: Percent Control (%)
T2 construct: purchased DiscoverX
T2 sequence (P30291 whole entry): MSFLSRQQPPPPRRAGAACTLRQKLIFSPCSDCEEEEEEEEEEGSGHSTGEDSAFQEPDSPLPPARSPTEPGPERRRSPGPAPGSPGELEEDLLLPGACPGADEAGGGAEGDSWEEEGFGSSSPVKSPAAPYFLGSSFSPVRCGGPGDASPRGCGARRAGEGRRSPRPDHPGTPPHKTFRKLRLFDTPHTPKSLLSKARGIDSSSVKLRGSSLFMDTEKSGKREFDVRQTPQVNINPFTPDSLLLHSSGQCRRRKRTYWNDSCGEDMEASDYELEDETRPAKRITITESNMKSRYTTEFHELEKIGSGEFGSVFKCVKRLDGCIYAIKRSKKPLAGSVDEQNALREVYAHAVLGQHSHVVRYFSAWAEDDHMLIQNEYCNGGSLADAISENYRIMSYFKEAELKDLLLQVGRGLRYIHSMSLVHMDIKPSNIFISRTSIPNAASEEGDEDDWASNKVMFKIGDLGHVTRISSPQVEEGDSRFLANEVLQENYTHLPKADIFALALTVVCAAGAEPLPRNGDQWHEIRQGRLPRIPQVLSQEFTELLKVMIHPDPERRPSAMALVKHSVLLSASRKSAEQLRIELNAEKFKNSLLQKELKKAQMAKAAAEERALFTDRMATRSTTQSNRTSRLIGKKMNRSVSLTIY
Procedure, shortened: as §1

[3] = molecular target: T3, scanMAX Kinase assay panel (Homo sapiens, UniProt P41743); conditions: PRKCI; 1 uM; read-out: Percent Control (%)
T3 construct: purchased DiscoverX
T3 sequence (P41743 1-596): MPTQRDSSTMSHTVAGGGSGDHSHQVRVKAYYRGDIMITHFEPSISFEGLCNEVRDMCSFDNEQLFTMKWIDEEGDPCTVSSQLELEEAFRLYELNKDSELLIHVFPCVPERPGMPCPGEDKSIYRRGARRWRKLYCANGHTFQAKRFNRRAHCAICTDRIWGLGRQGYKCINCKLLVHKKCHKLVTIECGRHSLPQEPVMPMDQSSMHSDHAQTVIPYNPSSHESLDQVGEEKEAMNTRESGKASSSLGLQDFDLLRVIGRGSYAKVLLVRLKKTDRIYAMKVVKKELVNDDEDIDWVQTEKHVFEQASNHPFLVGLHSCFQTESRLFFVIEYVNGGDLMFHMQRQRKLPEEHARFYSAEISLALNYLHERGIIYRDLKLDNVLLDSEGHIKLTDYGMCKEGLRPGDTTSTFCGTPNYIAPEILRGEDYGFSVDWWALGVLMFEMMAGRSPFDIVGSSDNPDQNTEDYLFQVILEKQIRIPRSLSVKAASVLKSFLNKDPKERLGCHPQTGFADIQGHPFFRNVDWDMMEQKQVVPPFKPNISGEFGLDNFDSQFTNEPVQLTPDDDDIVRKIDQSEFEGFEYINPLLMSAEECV
Procedure, shortened: as §1

[4] = molecular target: T4, scanMAX Kinase assay panel (Homo sapiens, UniProt Q02779); conditions: MLK2; 1 uM; read-out: Percent Control (%)
T4 construct: purchased DiscoverX
T4 sequence (Q02779 whole entry): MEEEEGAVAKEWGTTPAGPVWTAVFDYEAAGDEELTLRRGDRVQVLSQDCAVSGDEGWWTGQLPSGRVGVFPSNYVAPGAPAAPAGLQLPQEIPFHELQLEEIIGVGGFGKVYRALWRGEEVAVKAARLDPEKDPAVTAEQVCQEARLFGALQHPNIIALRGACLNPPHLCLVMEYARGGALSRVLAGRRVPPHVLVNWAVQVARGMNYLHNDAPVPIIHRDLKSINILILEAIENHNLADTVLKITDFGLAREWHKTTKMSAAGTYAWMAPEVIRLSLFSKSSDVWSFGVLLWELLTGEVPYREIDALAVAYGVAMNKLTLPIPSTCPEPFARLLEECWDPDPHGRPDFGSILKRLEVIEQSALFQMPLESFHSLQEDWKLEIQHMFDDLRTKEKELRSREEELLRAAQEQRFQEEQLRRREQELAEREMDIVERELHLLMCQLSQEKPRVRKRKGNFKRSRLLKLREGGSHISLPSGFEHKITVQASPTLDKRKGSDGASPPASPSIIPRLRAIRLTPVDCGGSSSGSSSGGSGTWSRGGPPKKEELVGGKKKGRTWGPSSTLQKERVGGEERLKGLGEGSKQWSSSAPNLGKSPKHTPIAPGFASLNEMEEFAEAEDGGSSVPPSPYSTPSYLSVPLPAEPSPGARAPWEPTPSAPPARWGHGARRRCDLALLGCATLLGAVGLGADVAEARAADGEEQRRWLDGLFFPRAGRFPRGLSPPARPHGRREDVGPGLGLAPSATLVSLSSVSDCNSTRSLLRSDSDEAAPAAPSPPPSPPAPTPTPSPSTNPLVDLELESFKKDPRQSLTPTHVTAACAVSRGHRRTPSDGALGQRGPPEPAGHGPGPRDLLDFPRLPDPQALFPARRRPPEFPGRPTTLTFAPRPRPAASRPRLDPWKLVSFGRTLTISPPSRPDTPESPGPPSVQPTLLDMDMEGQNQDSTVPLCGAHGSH
Procedure, shortened: as §1

[5] = molecular target: T5, scanMAX Kinase assay panel (Homo sapiens, UniProt Q96Q40); conditions: PFTAIRE2; 1 uM; read-out: Percent Control (%)
T5 construct: purchased DiscoverX
T5 sequence (Q96Q40 whole entry): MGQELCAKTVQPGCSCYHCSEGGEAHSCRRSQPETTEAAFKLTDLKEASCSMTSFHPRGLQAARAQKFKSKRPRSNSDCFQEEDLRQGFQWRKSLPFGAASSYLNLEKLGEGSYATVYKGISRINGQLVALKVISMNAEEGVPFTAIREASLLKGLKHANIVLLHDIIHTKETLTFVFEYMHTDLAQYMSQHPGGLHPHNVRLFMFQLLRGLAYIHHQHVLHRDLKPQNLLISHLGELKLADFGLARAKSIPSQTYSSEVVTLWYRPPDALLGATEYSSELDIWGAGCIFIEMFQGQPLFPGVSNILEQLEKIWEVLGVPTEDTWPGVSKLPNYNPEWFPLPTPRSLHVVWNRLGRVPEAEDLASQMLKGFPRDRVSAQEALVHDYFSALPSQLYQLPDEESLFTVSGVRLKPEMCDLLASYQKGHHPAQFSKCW
Procedure, shortened: as §1

[6] = molecular target: T6, scanMAX Kinase assay panel (Homo sapiens, UniProt Q99759); conditions: MAP3K3; 1 uM; read-out: Percent Control (%)
T6 construct: purchased DiscoverX
T6 sequence (Q99759 1-626): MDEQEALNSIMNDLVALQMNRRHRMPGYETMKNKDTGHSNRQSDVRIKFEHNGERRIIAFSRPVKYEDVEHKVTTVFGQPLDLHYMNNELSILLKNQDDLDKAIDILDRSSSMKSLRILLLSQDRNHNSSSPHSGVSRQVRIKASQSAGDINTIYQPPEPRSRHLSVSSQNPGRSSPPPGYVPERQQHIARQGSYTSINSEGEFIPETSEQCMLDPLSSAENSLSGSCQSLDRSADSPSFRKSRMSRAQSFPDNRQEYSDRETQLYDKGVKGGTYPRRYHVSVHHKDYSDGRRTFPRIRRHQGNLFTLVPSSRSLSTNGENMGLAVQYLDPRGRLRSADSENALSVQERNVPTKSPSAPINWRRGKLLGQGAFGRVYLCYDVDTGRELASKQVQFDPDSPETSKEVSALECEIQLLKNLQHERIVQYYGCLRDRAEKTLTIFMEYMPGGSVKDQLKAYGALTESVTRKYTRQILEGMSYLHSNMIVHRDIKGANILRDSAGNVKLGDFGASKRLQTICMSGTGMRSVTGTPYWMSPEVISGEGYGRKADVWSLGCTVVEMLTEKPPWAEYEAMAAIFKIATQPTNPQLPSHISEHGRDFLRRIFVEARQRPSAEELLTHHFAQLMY
Procedure, shortened: as §1

[7] = molecular target: T7, scanMAX Kinase assay panel (Homo sapiens, UniProt Q9Y6R4); conditions: MAP3K4; 1 uM; read-out: Percent Control (%)
T7 construct: purchased DiscoverX
T7 sequence (Q9Y6R4 whole entry): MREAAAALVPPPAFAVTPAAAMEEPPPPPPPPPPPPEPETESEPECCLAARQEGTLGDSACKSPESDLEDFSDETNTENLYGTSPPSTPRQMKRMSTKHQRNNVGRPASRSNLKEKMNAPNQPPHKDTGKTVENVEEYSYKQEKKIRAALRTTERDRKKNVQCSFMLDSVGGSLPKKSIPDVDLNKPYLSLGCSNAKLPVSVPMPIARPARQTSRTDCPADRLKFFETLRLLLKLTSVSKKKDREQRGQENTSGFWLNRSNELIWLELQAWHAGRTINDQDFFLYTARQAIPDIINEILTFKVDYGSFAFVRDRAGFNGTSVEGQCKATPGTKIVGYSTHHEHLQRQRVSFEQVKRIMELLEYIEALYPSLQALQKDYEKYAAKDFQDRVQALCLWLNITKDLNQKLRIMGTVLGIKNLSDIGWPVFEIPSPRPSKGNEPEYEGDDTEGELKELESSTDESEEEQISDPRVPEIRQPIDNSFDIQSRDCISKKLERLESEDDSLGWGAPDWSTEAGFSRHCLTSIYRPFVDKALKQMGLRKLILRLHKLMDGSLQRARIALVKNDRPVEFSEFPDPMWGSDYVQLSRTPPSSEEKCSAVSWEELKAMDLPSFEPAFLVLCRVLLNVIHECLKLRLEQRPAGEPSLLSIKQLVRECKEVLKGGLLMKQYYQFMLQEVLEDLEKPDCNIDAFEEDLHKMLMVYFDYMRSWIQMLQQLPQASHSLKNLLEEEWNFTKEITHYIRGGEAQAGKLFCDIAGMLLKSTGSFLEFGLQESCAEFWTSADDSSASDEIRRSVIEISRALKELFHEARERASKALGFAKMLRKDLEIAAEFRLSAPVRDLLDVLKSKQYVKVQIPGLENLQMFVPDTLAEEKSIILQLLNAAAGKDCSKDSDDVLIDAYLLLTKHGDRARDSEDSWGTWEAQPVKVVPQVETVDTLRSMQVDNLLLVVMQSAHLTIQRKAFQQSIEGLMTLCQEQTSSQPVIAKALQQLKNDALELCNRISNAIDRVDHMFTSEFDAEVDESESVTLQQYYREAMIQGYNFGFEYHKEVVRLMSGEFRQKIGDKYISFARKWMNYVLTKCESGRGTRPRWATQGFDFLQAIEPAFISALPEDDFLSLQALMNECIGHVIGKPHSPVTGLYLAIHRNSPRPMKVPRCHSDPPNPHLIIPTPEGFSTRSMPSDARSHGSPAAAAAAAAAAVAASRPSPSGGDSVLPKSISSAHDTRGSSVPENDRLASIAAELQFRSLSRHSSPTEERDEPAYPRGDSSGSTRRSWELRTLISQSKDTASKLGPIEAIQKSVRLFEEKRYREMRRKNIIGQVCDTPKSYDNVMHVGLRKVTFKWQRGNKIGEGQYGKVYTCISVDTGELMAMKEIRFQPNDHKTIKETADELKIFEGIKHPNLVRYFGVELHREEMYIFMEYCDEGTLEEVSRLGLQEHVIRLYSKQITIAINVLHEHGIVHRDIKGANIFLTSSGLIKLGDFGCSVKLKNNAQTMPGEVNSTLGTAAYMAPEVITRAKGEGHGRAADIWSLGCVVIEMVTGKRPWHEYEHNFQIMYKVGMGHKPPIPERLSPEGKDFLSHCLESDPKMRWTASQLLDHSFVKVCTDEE
Procedure, shortened: as §1

[8] = system: scanMAX Kinase assay panel; conditions: 1 uM
Procedure, shortened: as §1

T1 sequence (P29597 whole entry): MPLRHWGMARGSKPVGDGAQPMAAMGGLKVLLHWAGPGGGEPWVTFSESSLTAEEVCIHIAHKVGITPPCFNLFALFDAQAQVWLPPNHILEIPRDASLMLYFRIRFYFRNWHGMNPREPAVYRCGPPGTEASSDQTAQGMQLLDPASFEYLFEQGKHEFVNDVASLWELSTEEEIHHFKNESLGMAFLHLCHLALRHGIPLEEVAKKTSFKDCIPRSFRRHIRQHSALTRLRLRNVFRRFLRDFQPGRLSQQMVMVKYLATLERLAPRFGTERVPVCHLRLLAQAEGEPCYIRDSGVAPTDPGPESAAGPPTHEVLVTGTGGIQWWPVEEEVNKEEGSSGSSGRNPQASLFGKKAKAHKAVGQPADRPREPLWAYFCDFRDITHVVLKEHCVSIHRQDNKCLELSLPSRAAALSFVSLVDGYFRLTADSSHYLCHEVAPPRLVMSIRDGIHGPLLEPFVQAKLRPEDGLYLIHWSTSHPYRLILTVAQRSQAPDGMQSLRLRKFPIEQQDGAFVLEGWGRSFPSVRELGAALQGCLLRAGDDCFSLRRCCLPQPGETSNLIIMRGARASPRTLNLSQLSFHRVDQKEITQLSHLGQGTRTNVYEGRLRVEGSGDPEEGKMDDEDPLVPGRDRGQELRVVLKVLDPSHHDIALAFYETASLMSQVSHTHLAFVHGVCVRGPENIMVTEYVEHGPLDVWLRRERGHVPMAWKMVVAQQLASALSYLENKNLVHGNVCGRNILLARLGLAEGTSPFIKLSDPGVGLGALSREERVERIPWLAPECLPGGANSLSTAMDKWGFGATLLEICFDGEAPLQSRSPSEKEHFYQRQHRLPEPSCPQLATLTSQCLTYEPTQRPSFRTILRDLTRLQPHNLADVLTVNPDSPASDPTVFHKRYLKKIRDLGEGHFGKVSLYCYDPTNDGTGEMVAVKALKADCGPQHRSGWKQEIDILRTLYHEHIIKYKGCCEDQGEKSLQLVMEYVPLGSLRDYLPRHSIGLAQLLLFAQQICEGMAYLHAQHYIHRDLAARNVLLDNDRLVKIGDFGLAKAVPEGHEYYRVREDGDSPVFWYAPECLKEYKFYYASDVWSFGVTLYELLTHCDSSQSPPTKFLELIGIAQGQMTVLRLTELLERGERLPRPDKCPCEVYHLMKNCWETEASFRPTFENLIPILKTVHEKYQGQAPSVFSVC

SMILES	remaining binding at 1 µM ([1]; TYK2 (JH1domain-catalytic)) [%]	remaining binding at 1 µM ([1]; TYK2 (JH2domain-pseudokinase)) [%]	remaining binding at 1 µM [2] [%]	remaining binding at 1 µM [3] [%]	remaining binding at 1 µM [4] [%]	remaining binding at 1 µM [5] [%]	remaining binding at 1 µM [6] [%]	remaining binding at 1 µM [7] [%]	Percent Control (%) ([8]; EGFR (L747-E749del, A750P))	Percent Control (%) ([8]; EGFR (L747-S752del, P753S))	Percent Control (%) ([8]; EGFR (L747-T751del, Sins))	Percent Control (%) ([8]; FLT3 (ITD))	Percent Control (%) ([8]; FLT3 (ITD, D835V))	Percent Control (%) ([8]; FLT3 (ITD, F691L))
Cc1ccc(NC(=O)C2(C(=O)Nc3ccc(F)cc3)CC2)cc1C#Cc1cnc2c(Nc3cnn(C(C)C)c3)cccn12 [Example 78]	97	100	100	69	94	100	77	90	100	87	100	71	35	31
Cc1cn(-c2cc(NC(=O)c3ccc(C)c(C#Cc4cnc5c(Nc6cnn(C)c6)cccn45)c3)cc(C(F)(F)F)c2)cn1 [Example 12, 4-methyl-N-(3-(4-methyl-1H-imidazol-1-yl)-5-(trifluoromethyl)phenyl)-3-((8-((1-methyl-1H-pyrazol-4-yl)amino)imidazo[1,2-a]pyridin-3-yl)ethynyl)benzamide]	96	100	90	66	48	75	33	92	5	6	6	4	100	45
Cc1ccc(C(=O)Nc2ccc(CN3CCN(C)CC3)c(C(F)(F)F)c2)cc1C#Cc1cnc2c(Nc3cnn(C)c3)cccn12 [Example 1, 4-methyl-3-((8-((1-methyl-1H-pyrazol-4-yl)amino)imidazo[1,2-a]pyridin-3-yl)ethynyl)-N-(4-((4-methylpiperazin-1-yl)methyl)-3-(trifluoromethyl)phenyl)benzamide]	9	100	92	51	29	6	0	70	3	1	2	1	20	2

Reference: patent US10870647B2, “Imidazopyridine derivative, method for preparing same, and pharmaceutical composition containing same as active ingredient for preventing or treating cancer” (DAEGU-GYEONGBUK MEDICAL INNOVATION FOUNDATION, priority 2016, dated 2020)
